From publication PMC5712521, “Dendrogenin A drives LXR to trigger lethal autophagy in cancers” (Nature Communications, 2017)

Assays:
[1] = biological target: T1, human liver-X-receptor LXRα (Homo sapiens, UniProt Q13133); assay: LXRE-luciferase gene reporter assay in HEK293T, LXRα; assay type: cell-based; details: LXRα; 10 µM 22(R)HC; read-out: IC50, inhibition of LXR-dependent luciferase activity stimulated by 22(R)HC
T1 construct: expressed in transfected cells; host or cells: HEK293T
T1 sequence (Q13133 1-447): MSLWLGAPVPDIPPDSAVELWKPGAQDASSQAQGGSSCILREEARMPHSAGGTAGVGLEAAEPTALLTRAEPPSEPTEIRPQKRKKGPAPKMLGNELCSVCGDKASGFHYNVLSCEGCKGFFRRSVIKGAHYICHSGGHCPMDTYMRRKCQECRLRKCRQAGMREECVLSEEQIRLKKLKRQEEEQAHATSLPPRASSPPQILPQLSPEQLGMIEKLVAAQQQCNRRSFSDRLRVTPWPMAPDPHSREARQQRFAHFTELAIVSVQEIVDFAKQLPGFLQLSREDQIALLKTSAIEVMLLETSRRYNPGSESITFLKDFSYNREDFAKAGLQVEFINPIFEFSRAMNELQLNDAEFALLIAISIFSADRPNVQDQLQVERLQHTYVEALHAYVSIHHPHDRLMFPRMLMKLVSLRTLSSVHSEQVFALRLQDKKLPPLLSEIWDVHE
T1 sequence (P48443 1-463 partner): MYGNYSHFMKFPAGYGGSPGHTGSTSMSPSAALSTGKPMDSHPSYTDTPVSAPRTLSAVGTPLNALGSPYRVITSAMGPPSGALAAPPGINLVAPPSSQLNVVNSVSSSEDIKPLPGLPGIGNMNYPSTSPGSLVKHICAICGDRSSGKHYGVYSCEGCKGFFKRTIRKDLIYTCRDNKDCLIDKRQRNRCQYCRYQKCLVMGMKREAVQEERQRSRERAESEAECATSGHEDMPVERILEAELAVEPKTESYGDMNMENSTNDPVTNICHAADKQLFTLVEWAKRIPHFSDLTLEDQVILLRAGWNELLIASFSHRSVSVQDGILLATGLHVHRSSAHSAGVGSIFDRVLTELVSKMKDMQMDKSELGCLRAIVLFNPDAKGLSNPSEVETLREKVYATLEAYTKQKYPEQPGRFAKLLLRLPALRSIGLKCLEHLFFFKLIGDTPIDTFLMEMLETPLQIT
Text: HEK293T were used for luciferase assays. Cells were transfected using the PolyEthylenImine (PEI) method with human retinoid-X receptor (RXRγ) and human liver-X-receptors (LXRα or LXRβ) with LXRE-Luc; RXRγ and human farnesoid X receptor (FXR) with EcRE-Luc; RXRγ and human steroid and xenobiotic X receptor (SXR) with DR4-Luc; RXRγ and human peroxisome proliferator activated receptors (PPARα, or PPARγ) with PPRE-Luc; RXRγ and human retinoic acid receptor (RARα) with DR1-Luc; human AHR and human ARNT with a DRE-Luc; human vitamin D receptor (VDR) with VDRE-Luc. Cells were transfected with plasmids encoding human glucocorticoid receptor (GR), progesterone receptor (PR), or androgen receptor (AR) with MMTV-Luc; or estrogen receptors (ERα and ERβ) with an ERE-Luc. The day after transfection with the luciferase reporter gene construct, cells were seeded in 12-well plates (50,000 cells per well). After 6 h, cells were then treated with the following ligands dissolved in ethanol: 10 nM estradiol (E2) for ERα and ERβ; 10 nM R1881 for AR; 10 nM R5020 for PR; 10 nM dexamethasone for GR; 10 µM fenofibrate for PPARα; 100 nM rosiglitazone (BRL 49653) for PPARγ; 100 nM cis-retinoic acid (cRA) for RAR; 10 nM dioxine for AHR, 10 µM rifampicine for SXR and 10 µM 22(R) hydroxycholesterol (22(R)HC) for LXRα and LXRβ. At the end of each treatment, cells were lysed in 100 μl lysis buffer (Promega). Luciferase activity was measured using the luciferase assay reagent (Promega), according to the manufacturer’s instructions. Protein concentrations were measured using the Bradford method to normalize luciferase activities. For each condition, luciferase activity was calculated from the data of three independent wells.

[2] = tested on: primary AML cells; assay: Patient-derived primary AML cells engrafted into NSG mice; assay type: in vivo; details: three patients; 20 mg/kg/d i.p., 19 days
Protocol: The engraftment of human primary AML cells was performed on NSG mice. Briefly, human primary AML cells, HL60 cells or normal CD34+ cells were resuspended in PBS, and 0.8 × 10^6 to 2 × 10^6 viable trypan blue-negative cells were injected intravenously into NSG mice that had been previously irradiated for 24 h with 2.25 Gy. Two and a half weeks after the injection of human cells, mice were treated with DDA (20 mg/kg/day by IP injection) or vehicle as control for 2, 3 weeks, after which the engraftment of human AML and normal hematopoietic cells was measured in the bone marrow, spleen and brain by quantifying the percentage of hCD45+CD33+ cells by flow cytometry. The viability of AML cells was established by quantifying the percentage of hCD45+CD33+Annexin-V- cells.

SMILES: CC(C)CCC[C@@H](C)[C@H]1CC[C@H]2[C@@H]3C[C@@H](NCCc4cnc[nH]4)[C@@]4(O)C[C@@H](O)CC[C@]4(C)[C@H]3CC[C@]12C [DDA, Dendrogenin A]
- IC50 [1]: 362 ± 52 nM
- change in AML cell viability in bone marrow and spleen compared to controls [2]: −19.6 ± 7.6%
- change in number of AML cells in bone marrow and spleen compared to controls [2]: −57 ± 15%
